Laboratory results: PubChem BioAssay (NCI)
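Method: 48-hour compound exposure of cells in 96-well plates, five concentrations, linear interpolation of endpoints. The concentration for full growth arrest is given as TGI.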

What was measured:
Assay in all cases: NCI anticancer screen, dose series, 48 h
PC-3 prostate = test system: PC-3 prostate
CAKI-1 renal = test system: CAKI-1 renal
A549 NSCLC = test system: A549 NSCLC
RPMI-8226 leukemia = test system: RPMI-8226 leukemia
ACHN renal = test system: ACHN renal
NCI-H460 lung = test system: NCI-H460 lung
SNB-75 CNS = test system: SNB-75 CNS
SK-MEL-5 melanoma = test system: SK-MEL-5 melanoma
RXF 393 renal = test system: RXF 393 renal
OVCAR-8 ovarian = test system: OVCAR-8 ovarian
SF-268 CNS = test system: SF-268 CNS
NCI-H23 lung = test system: NCI-H23 lung
HCC-2998 colon = test system: HCC-2998 colon
BT-549 breast = test system: BT-549 breast
MCF7 breast = test system: MCF7 breast
SW-620 colon = test system: SW-620 colon
UACC-62 melanoma = test system: UACC-62 melanoma
SNB-19 CNS = test system: SNB-19 CNS
HOP-62 NSCLC = test system: HOP-62 NSCLC
U251 CNS = test system: U251 CNS
EKVX NSCLC = test system: EKVX NSCLC
786-0 renal = test system: 786-0 renal
HCT-116 colon = test system: HCT-116 colon
A498 renal = test system: A498 renal
TK-10 renal = test system: TK-10 renal
M14 melanoma = test system: M14 melanoma
UO-31 renal = test system: UO-31 renal
SK-MEL-2 melanoma = test system: SK-MEL-2 melanoma
MDA-MB-435 = test system: MDA-MB-435
IGROV1 ovarian = test system: IGROV1 ovarian
NCI-H522 lung = test system: NCI-H522 lung
K-562 leukemia = test system: K-562 leukemia
HOP-92 NSCLC = test system: HOP-92 NSCLC
NCI-H226 lung = test system: NCI-H226 lung
UACC-257 melanoma = test system: UACC-257 melanoma
MDA-MB-231 breast = test system: MDA-MB-231 breast
MDA-N = test system: MDA-N
OVCAR-4 ovarian = test system: OVCAR-4 ovarian
CCRF-CEM leukemia = test system: CCRF-CEM leukemia
SK-OV-3 ovarian = test system: SK-OV-3 ovarian
SN12C renal = test system: SN12C renal
SK-MEL-28 melanoma = test system: SK-MEL-28 melanoma
DU-145 prostate = test system: DU-145 prostate
OVCAR-5 ovarian = test system: OVCAR-5 ovarian
OVCAR-3 ovarian = test system: OVCAR-3 ovarian
T-47D breast = test system: T-47D breast
HS 578T breast = test system: HS 578T breast
SR leukemia = test system: SR leukemia
COLO 205 colon = test system: COLO 205 colon
SF-295 CNS = test system: SF-295 CNS
HCT-15 colon = test system: HCT-15 colon
NCI/ADR-RES ovarian = test system: NCI/ADR-RES ovarian
LOX IMVI melanoma = test system: LOX IMVI melanoma
HL-60(TB) leukemia = test system: HL-60(TB) leukemia
MOLT-4 leukemia = test system: MOLT-4 leukemia
HT29 colon = test system: HT29 colon
KM12 colon = test system: KM12 colon
MALME-3M melanoma = test system: MALME-3M melanoma
SF-539 CNS = test system: SF-539 CNS

Measured: TGI

O=C1OC(c2ccccc2)=N/C1=C\c1ccc(Cl)cc1
not listed: MALME-3M melanoma | SF-539 CNS
> 100 µM: all other assays above

Cc1ccc(NC(=O)c2cc(S(=O)(=O)Nc3n[nH]c(=O)n3-c3ccccc3)c(S)cc2Cl)cc1
not listed: ACHN renal | HOP-62 NSCLC | CCRF-CEM leukemia | SF-295 CNS
> 100 µM: all other assays above

Cc1cc(C)c2c(c1)CC1(Cc3c(ccc(C)c3C)C1=O)C2=O (stereo not drawn)
not listed: HOP-62 NSCLC | COLO 205 colon | LOX IMVI melanoma
> 100 µM: all other assays above
